Results on 30 compounds are retold here after patent US10980781B2, “6-amino-2,4-dihydropyrano [2,3-c] pyrazoles and methods of use” (Purdue Research Foundation, priority 2017, dated 2021).

For the test, the target named is USP7 (Homo sapiens (Human), UniProt Q93009). Briefly: USP7 inhibition assay with Ub-Rho 110 substrate (fluorescence progress curves). The test is classed as biochemical. The settings on record: for inhibition at 100 µM / % inhibition @100 μM: 100 μM compound, 1 nM USP7, 200 nM Ub-Rho 110, 3% DMSO, triplicate; for IC50: 11 compound concentrations, two-fold serial dilutions, 1 nM USP7, 200 nM Ub-Rho 110. The method, then: Each assay was measured in triplicate. […] All reactions contained a final concentration of 3% DMSO. […] The percent inhibition was calculated using Equation (1).
The assay design was identical to as described above. The percent inhibition was calculated using Equation 1 and fit to Equation 2 by use of the Enzyme Kinetics Module of Sigma Plot (v13:Systat Software Inc.), to determine the IC50 value.

Sequence of USP7 (Q93009 whole entry): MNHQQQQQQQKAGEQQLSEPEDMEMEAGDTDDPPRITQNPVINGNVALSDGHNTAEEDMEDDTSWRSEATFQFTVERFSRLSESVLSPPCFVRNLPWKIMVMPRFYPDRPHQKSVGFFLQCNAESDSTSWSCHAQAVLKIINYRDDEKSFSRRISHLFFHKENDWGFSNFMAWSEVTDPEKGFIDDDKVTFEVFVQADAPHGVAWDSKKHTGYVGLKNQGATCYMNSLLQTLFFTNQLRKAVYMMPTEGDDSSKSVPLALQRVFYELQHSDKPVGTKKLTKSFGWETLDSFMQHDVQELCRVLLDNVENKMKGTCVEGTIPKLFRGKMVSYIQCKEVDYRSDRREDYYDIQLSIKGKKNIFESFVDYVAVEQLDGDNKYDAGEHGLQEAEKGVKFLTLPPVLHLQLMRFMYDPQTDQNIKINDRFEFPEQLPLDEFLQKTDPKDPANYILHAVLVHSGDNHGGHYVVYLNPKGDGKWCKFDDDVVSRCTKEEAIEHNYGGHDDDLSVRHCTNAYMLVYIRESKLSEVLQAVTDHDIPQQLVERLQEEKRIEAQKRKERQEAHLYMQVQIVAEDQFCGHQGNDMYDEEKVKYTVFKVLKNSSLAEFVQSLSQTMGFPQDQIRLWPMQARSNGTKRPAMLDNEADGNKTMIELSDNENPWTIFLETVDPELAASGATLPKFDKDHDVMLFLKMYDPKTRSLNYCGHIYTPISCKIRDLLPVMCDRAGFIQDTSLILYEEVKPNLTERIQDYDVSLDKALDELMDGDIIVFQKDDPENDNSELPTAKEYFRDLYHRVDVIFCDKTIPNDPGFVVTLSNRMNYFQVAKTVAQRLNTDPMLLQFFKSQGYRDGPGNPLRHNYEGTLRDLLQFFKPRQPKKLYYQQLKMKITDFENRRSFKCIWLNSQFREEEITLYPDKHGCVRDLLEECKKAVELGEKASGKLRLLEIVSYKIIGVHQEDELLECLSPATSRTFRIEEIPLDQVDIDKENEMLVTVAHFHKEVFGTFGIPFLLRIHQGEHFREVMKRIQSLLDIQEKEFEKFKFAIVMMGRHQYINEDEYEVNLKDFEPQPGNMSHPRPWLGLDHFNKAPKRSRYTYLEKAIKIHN

Compound `N#CC1=C(N)Oc2n[nH]c(-c3cccs3)c2C1c1cccc(Br)c1` (stereo not shown) [Compound 6c, 6-Amino-4-(3-bromophenyl)-3-(thiophen-2-yl)-2,4-dihydropyrano[2,3-c]pyrazole-5-carbonitrile] gave an inhibition at 100 µM of 0%.

Compound `CNC1=C(C#N)C(c2ccc(OC)c(Br)c2)c2c(n[nH]c2-c2cccs2)O1` (stereo not shown) [Compound 13, 4-(3-Bromo-4-methoxyphenyl)-6-(methylamino)-3-(thiophen-2-yl)-2,4-dihydropyrano[2,3-c]pyrazole-5-carbonitrile] returned an inhibition at 100 µM of 47 ± 1%.

In turn, `N#CC1=C(N)Oc2n[nH]c(-c3cccs3)c2C1c1ccc(N=[N+]=[N-])c(I)c1` (stereo not shown) [Compound 6p, 6-Amino-4-(4-azido-3-iodophenyl)-3-(thiophen-2-yl)-2,4-dihydropyrano[2,3-c]pyrazole-5-carbonitrile] had an inhibition at 100 µM of 62 ± 20%.

The compound `N#CC1=C(N)Oc2n[nH]c(-c3cccs3)c2C1c1ccc(O)cc1` (stereo not shown) [Compound 6d, 6-Amino-4-(4-hydroxyphenyl)-3-(thiophen-2-yl)-2,4-dihydropyrano [2,3-c]pyrazole-5-carbonitrile] gave an inhibition at 100 µM of 0%.

Turning to `COc1ccc(C2C(C#N)=C(N)Oc3n[nH]c(-c4ccc(Cl)cc4)c32)cc1Br` (racemic) [Compound 7h, 6-Amino-4-(3-bromo-4-methoxyphenyl)-3-(4-chlorophenyl)-2,4-dihydropyrano [2,3-c]pyrazole-5-carbonitrile], the inhibition at 100 µM was 66 ± 3% and the IC50 amounted to 7.5 ± 0.9 µM.

As for `COc1ccc(C2C(C#N)=C(N)Oc3n[nH]c(-c4ccn(C)c4)c32)cc1Br` (racemic) [Compound 7l, 6-Amino-4-(3-bromo-4-methoxyphenyl)-3-(1-methyl-1H-pyrrol-3-yl)-2,4-dihydropyrano[2,3-c]pyrazole-5-carbonitrile], at 100 µM the inhibition was 88 ± 0.09% and the IC50 came out at 1.91 ± 0.8 µM.

`COc1ccc(C2C(C#N)=C(N)Oc3n[nH]c(-c4cccs4)c32)cc1` (stereo not shown) [Compound 6b, 6-Amino-4-(4-methoxyphenyl)-3-(thiophen-2-yl)-2,4-dihydropyrano [2,3-c]pyrazole-5-carbonitrile] returned an inhibition at 100 µM of 10 ± 7%.

`N#CC1=C(N)Oc2n[nH]c(-c3cccs3)c2C1c1ccc(Cl)cc1` (stereo not shown) [Compound 6f, 6-Amino-4-(4-chlorophenyl)-3-(thiophen-2-yl)-2,4-dihydropyrano[2,3-c]pyrazole-5-carbonitrile] returned an inhibition at 100 µM of 31 ± 6%.

Take `COc1ccc(C2C(C#N)=C(N)Oc3n[nH]c(-c4ccccn4)c32)cc1Br` (racemic) [Compound 7c, 6-Amino-4-(3-bromo-4-methoxyphenyl)-3-(pyridin-2-yl)-2,4-dihydropyrano [2,3-c]pyrazole-5-carbonitrile]: the inhibition at 100 µM came out at 85 ± 2% and the IC50 was 7.9 ± 0.4 µM.

`COc1ccc(C2C(C#N)=C(N)Oc3n[nH]c(-c4ccsc4)c32)cc1Br` (racemic) [Compound 7a, 6-Amino-4-(3-bromo-4-methoxyphenyl)-3-(thiophen-3-yl)-2,4-dihydropyrano [2,3-c]pyrazole-5-carbonitrile]: testing at 100 µM gave an inhibition of 72 ± 4% and the midpoint of inhibition, the IC50, lay at 8.1 ± 1 µM.

Take `COc1ccc(C2C(C#N)=C(N)Oc3n[nH]c(-c4cccs4)c32)cc1F` (racemic) [Compound 6s, 6-Amino-4-(3-fluoro-4-methoxyphenyl)-3-(thiophen-2-yl)-2,4-dihydropyrano [2,3-c]pyrazole-5-carbonitrile]: the inhibition at 100 µM stood at 32 ± 13% and the IC50 stood at 7 ± 2 µM.

Turning to `N#CC1=C(N)Oc2n[nH]c(-c3cccs3)c2C1c1ccc([N+](=O)[O-])cc1` (racemic) [Compound 6g, 6-Amino-4-(4-nitrophenyl)-3-(thiophen-2-yl)-2,4-dihydropyrano[2,3-c]pyrazole-5-carbonitrile], the inhibition at 100 µM amounted to 57 ± 2% and the IC50 is 33 ± 5 µM.

With `CCOCNC1=C(C#N)C(c2ccc(OC)c(Br)c2)c2c(-c3cccs3)nn(C)c2O1` (stereo not shown) [Compound 11, 4-(3-Bromo-4-methoxyphenyl)-6-((ethoxymethyl)amino)-1-methyl-3-(thiophen-2-yl)-1,4-dihydropyrano [2,3-c]pyrazole-5-carbonitrile], testing at 100 µM gave an inhibition of 0%.

For the compound `Cc1ccc(C2C(C#N)=C(N)Oc3n[nH]c(-c4cccs4)c32)cc1` (stereo not shown) [Compound 6e, 6-Amino-3-(thiophen-2-yl)-4-(p-tolyl)-2,4-dihydropyrano [2,3-c]pyrazole-5-carbonitrile], the inhibition at 100 µM came out at 0%.

For `N#CC1=C(N)Oc2n[nH]c(-c3cccs3)c2C1c1ccc(O)c(C(F)(F)F)c1` (racemic) [Compound 6v, 6-Amino-4-(4-hydroxy-3-(trifluoromethyl)phenyl)-3-(thiophen-2-yl)-2,4-dihydropyrano[2,3-c]pyrazole-5-carbonitrile], the “% inhibition @100 μM” value is listed as 93 ± 4% and the IC50 was found to be 0.75 ± 0.06 µM.

Compound `COc1ccc(C2C(C#N)=C(N)Oc3c2c(-c2cccs2)nn3C)cc1I` (stereo not shown) [Compound 9b, 6-Amino-4-(3-iodo-4-methoxyphenyl)-1-methyl-3-(thiophen-2-yl)-1,4-dihydropyrano[2,3-c]pyrazole-5-carbonitrile] returned an inhibition at 100 µM of 0%.

Consider `C=CCN1CCc2ccc(C3C(C#N)=C(N)Oc4n[nH]c(-c5cccs5)c43)cc21` (stereo not shown) [Compound 6i, 4-(1-Allylindolin-6-yl)-6-amino-3-(thiophen-2-yl)-2,4-dihydropyrano[2,3-c]pyrazole-5-carbonitrile], for which the inhibition at 100 µM stood at 63 ± 1%.

`N#CC1=C(N)Oc2n[nH]c(-c3cccs3)c2C1c1ccc(O)c(C(F)(F)F)c1` (racemic) [Compound 6q, 6-Amino-4-(4-hydroxy-3-(trifluoromethyl)phenyl)-3-(thiophen-2-yl)-2,4-dihydropyrano[2,3-c]pyrazole-5-carbonitrile]: the inhibition at 100 µM stood at 92 ± 2% and it took 11 ± 0.7 µM to reach half-maximal inhibition (IC50).

The compound `COc1cc(C)c(C2C(C#N)=C(N)Oc3n[nH]c(-c4cccs4)c32)cc1C(C)C` (racemic) [Compound 6r, 6-Amino-4-(5-isopropyl-4-methoxy-2-methylphenyl)-3-(thiophen-2-yl)-2,4-dihydropyrano[2,3-c]pyrazole-5-carbonitrile] showed an inhibition at 100 µM of 95 ± 4% and an IC50 of 1.4 ± 0.2 µM.

On to `COc1ccc(C2C(C#N)=C(N)Oc3c2c(-c2cccs2)nn3C)cc1Br` (stereo not shown) [Compound 9a, 6-Amino-4-(3-bromo-4-methoxyphenyl)-1-methyl-3-(thiophen-2-yl)-1,4-dihydropyrano[2,3-c]pyrazole-5-carbonitrile], for which testing at 100 µM gave an inhibition of 0%.

`COc1ccc(C2C(C#N)=C(N)Oc3n[nH]c(-c4cc(C)sc4C)c32)cc1I` (stereo not shown) [Compound 7o, 6-Amino-3-(2,5-dimethylthiophen-3-yl)-4-(3-iodo-4-methoxyphenyl)-2,4-dihydropyrano[2,3-c]pyrazole-5-carbonitrile]: the inhibition at 100 µM stood at 29 ± 6%.

On to `COc1ccc(C2C(C#N)=C(N)Oc3n[nH]c(-c4ccc(Cl)cc4)c32)cc1I` (stereo not shown) [Compound 7i, 6-Amino-3-(4-chlorophenyl)-4-(3-iodo-4-methoxyphenyl)-2,4-dihydropyrano [2,3-c]pyrazole-5-carbonitrilem], for which the “% inhibition @100 μM” value is on record as 69 ± 3% and half-maximal inhibition (IC50) required 15 ± 2 µM.

For `COc1ccc(C2C(C#N)=C(N)Oc3n[nH]c(-c4cccs4)c32)cc1Br` (stereo not shown) [Compound 6a, 6-Amino-4-(3-bromo-4-methoxyphenyl)-3-(thiophen-2-yl)-2,4-dihydropyrano [2,3-c]pyrazole-5-carbonitrile], the inhibition at 100 µM came to 72 ± 3%.

`CCCOc1ccc(C2C(C#N)=C(N)Oc3n[nH]c(-c4cccs4)c32)cc1Br` (stereo not shown) [Compound 6m, 6-Amino-4-(3-bromo-4-propoxyphenyl)-3-(thiophen-2-yl)-2,4-dihydropyrano [2,3-c]pyrazole-5-carbonitrile] showed an inhibition at 100 µM of 32 ± 5%.

In turn, `Cc1ccc(C2C(C#N)=C(N)Oc3n[nH]c(-c4ccc(Cl)cc4)c32)cc1C` (stereo not shown) [Compound 7g, 6-Amino-3-(4-chlorophenyl)-4-(3,4-dimethylphenyl)-2,4-dihydropyrano[2,3-c]pyrazole-5-carbonitrile] registered an inhibition at 100 µM of 34 ± 6%.

With `COc1ccc(C2C(C#N)=C(N)Oc3n[nH]c(-c4cccnc4)c32)cc1I` (racemic) [Compound 7f, 6-Amino-4-(3-iodo-4-methoxyphenyl)-3-(pyridin-3-yl)-2,4-dihydropyrano [2,3-c]pyrazole-5-carbonitrile], 100 µM produced 83 ± 3% inhibition and it took 7.7 ± 0.9 µM to reach half-maximal inhibition (IC50).

Regarding `COc1ccc(C2C(C#N)=C(N)Oc3n[nH]c(-c4cc(C)sc4C)c32)cc1Br` (stereo not shown) [Compound 7n, 6-Amino-4-(3-bromo-4-methoxyphenyl)-3-(2,5-dimethylthiophen-3-yl)-2,4-dihydropyrano[2,3-c]pyrazole-5-carbonitrile], 100 µM produced 32 ± 3% inhibition.

With `COc1ccc(C2C(C#N)=C(N)Oc3n[nH]c(-c4cccs4)c32)cc1I` (racemic) [Compound 6u, 6-Amino-4-(3-iodo-4-methoxyphenyl)-3-(thiophen-2-yl)-2,4-dihydropyrano [2,3-c]pyrazole-5-carbonitrile], the inhibition at 100 µM came to 85 ± 1% and the IC50 was found to be 1.8 ± 0.1 µM.

`N#CC1=C(N)Oc2n[nH]c(-c3cccs3)c2C1c1ccc2c(c1)-c1ccccc1C2` (stereo not shown) [Compound 6h, 6-amino-4-(9H-fluoren-3-yl)-3-(thiophen-2-yl)-2,4-dihydropyrano [2,3-c]pyrazole-5-carbonitrile] came in with an inhibition at 100 µM of 38 ± 6%.

`N#CC1=C(N)Oc2n[nH]c(-c3cccs3)c2C1c1ccc2c(c1)CCO2` (racemic) [Compound 6o, 6-Amino-4-(2,3-dihydrobenzofuran-5-yl)-3-(thiophen-2-yl)-2,4-dihydropyrano [2,3-c]pyrazole-5-carbonitrile]: 100 µM produced 45 ± 9% inhibition and half-maximal inhibition (IC50) was put at 13 ± 3 µM.

A word on the inhibition: it is the change of the read-out against control, counted positive when it falls. Read a high inhibition as a strong effect. What is called IC50 is the midpoint of a concentration-inhibition curve. A low value points to inhibition by little substance.
